Data on 6 compounds can be found in US4126616A, “N-propylnorapomorphine diesters” (Hinshaw; William B., priority 1976, dated 1978).

The structures appear in SMILES notation. Structures can show the parent of a compound that is named as a salt. Where two headings read alike, the source gives them in different places. Where only a bound is given, the exact number is not on record here.

The test system of the assay is caudate lesioned mouse. Description: caudate lesioned mouse test (anti-parkinson activity). The format is in vivo. The note with it: for ED50: caudate lesioned mouse; for Molar Potency Ratio Claimed/Ref. Ester: claimed N-propyl ester vs corresponding N-methyl reference ester; for responders at 132 µmol/kg: dose 0.132 m. mole/kg; for responders at 5.2 µmol/kg: dose 0.0052 m. mole/kg. On the procedure:
An index of anti-parkinson activity was determined using the caudate lesioned mouse test described by Lotti, Life Sci., 10, 781-789 (1971). The mice having unilateral lesions of the caudate nucleus prepared according to the method of Lotti supra were observed immediately after the surgical procedure for strong postural asymmetries directed to the same side as the lesion. When this asymmetry was not observed, the mice were discarded. Operated mice were allowed at least 14 days to recover prior to drug testing. The lesioned mice were tested with apomorphine using 1.7 mg./kg. of base administered intraperitoneally in a 1% suspension in gum tragacanth. […] Only those mice which twisted or circled toward the lesioned side in all three test periods after the apomorphine injection were retained for further drug testing. The test drugs were all administered in 1% gum tragacanth suspension in a volume of 0.1 ml./10 g. of body weight. Doses were expressed in mg./kg. of free base.
Results of tests in the caudate lesioned mouse test described above which were obtained on the compounds of the invention are given in the table below identified, in each case, by the example numbers above where their preparations are described. Corresponding data for reference apomorphine diesters described in German patent application No. 2,154,162 are given in a side-by-side relationship for a number of the species. The reference compounds, designated Ref. 1, Ref. 1B, Ref. 1C, Ref. 1D, Ref. 1E, Ref. 1F, Ref. 2 and Ref. 2A correspond, respectively, to the compounds of the invention identified by Examples 1, 1B, 1C, 1D, 1E, 1F, 2 and 2A and differ from the latter only in having a methyl group on the apomorphine nitrogen from instead of an n-propyl group as present in the instant compounds.

[1] abbreviates: Mus musculus, 0.5 h, read-out: No. Mice Affected/No. Mice Tested, 1/2 h.
Where [2] appears, read: Mus musculus, 1 h, read-out: No. Mice Affected/No. Mice Tested, 1 h.
Setting [3] is: Mus musculus, 4 h, read-out: No. Mice Affected/No. Mice Tested, 4 h.
Setting [4] is: Mus musculus, 6 h, read-out: No. Mice Affected/No. Mice Tested, 6 h.
[5] abbreviates: Mus musculus, 24 h, read-out: No. Mice Affected/No. Mice Tested, 24 h.
[6] abbreviates: Mus musculus, read-out: No. Mice Affected/No. Mice Tested, Total.
Setting [7] is: Mus musculus, 2 h, read-out: No. Mice Affected/No. Mice Tested, 2 h.

Regarding `CC(=O)Oc1ccc2c(c1OC(C)=O)-c1cccc3c1C(C2)N(C)CC3` (stereo not drawn) [Ref. 2, reference compound], the responders at 208 µmol/kg runs as follows: under setting [1], 0%; under setting [2], 0%; under setting [3], 0%; under setting [4], 0%; under setting [5], 25%; under setting [6], 25%. The responders at 416 µmol/kg under setting [1] was 25%; the responders at 416 µmol/kg under setting [2] is 50%; the responders at 416 µmol/kg under setting [3] was 75%; the responders at 416 µmol/kg under setting [4] was 75%; the responders at 416 µmol/kg under setting [5] is 25%; the responders at 416 µmol/kg under setting [6] is 75%.
In the case of `CCCN1CCc2cccc3c2C1Cc1ccc(OC(=O)CC)c(OC(=O)CC)c1-3` (stereo not drawn) [Ex. 1 (HCl), N-propylnorapomorphine dipropionate], the ED50 came out at 0.0094 m. mole/kg and the “Molar Potency Ratio Claimed/Ref. Ester” value was 10. Under setting [1], the responders at 6.5 µmol/kg is 25%, the responders at 130 µmol/kg is 75% and the responders at 260 µmol/kg was 100%. Under setting [2], the responders at 6.5 µmol/kg was 25%, the responders at 130 µmol/kg is 50% and the responders at 260 µmol/kg is 100%. Further, under setting [7], the responders at 6.5 µmol/kg came out at 0%, the responders at 130 µmol/kg was determined as 0% and the responders at 260 µmol/kg was 100%. Under setting [3], the responders at 6.5 µmol/kg was 0%, the responders at 130 µmol/kg was found to be 0% and the responders at 260 µmol/kg is 100%. For the same compound, under setting [4], the responders at 6.5 µmol/kg is 0%, the responders at 130 µmol/kg was found to be 0% and the responders at 260 µmol/kg was 100%. Further, under setting [6], the responders at 6.5 µmol/kg is 25%, the responders at 130 µmol/kg is 75% and the responders at 260 µmol/kg is 100%.
For `CC(C)C(=O)Oc1ccc2c(c1OC(=O)C(C)C)-c1cccc3c1C(C2)N(C)CC3` (stereo not drawn) [Ref. 1B, reference compound], the responders at 208 µmol/kg under setting [1] was determined as 0%; the responders at 208 µmol/kg under setting [2] came to 0%; the responders at 208 µmol/kg under setting [3] is 25%; the responders at 208 µmol/kg under setting [4] stood at 0%; the responders at 208 µmol/kg under setting [5] amounted to 0%; the responders at 208 µmol/kg under setting [6] was 25%.
In the case of `CCCCCCCCCCCCCCCC(=O)Oc1ccc2c(c1OC(=O)CCCCCCCCCCCCCCC)-c1cccc3c1C(C2)N(CCC)CC3` (stereo not drawn) [Ex. ID, N-Propylnorapomorphine dihexadecanoate], the “Molar Potency Ratio Claimed/Ref. Ester” value was at least 8. In addition, under “Mus musculus, 0.5 h, dose 0.052 m. mole/kg, 1/2 h post-drug, read-out: No. Mice Affected/No. Mice Tested, 1/2 h (converted)”, the responders at 52 µmol/kg is 0%. Moreover, under “Mus musculus, 0.5 h, 1/2 h post-drug, read-out: No. Mice Affected/No. Mice Tested, 1/2 h (converted)”, the responders at 132 µmol/kg is 0%. Further, the responders at 52 µmol/kg (Mus musculus, dose 0.052 m. mole/kg, 1 h post-drug, read-out: No. Mice Affected/No. Mice Tested, 1 h (converted)) was 0%. Besides, the responders at 52 µmol/kg (Mus musculus, dose 0.052 m. mole/kg, 4 h post-drug, read-out: No. Mice Affected/No. Mice Tested, 4 h (converted)) was 25%. Also, the responders at 52 µmol/kg (Mus musculus, dose 0.052 m. mole/kg, 6 h post-drug, read-out: No. Mice Affected/No. Mice Tested, 6 h (converted)) was 25%. The responders at 52 µmol/kg (Mus musculus, dose 0.052 m. mole/kg, 24 h post-drug, read-out: No. Mice Affected/No. Mice Tested, 24 h) came out at 0%. Also, the responders at 52 µmol/kg (Mus musculus, dose 0.052 m. mole/kg, total, read-out: No. Mice Affected/No. Mice Tested, Total (converted)) is 25%. Moreover, the responders at 132 µmol/kg (Mus musculus, 1 h post-drug, read-out: No. Mice Affected/No. Mice Tested, 1 h (converted)) is 0%. Besides, the responders at 132 µmol/kg (Mus musculus, 4 h post-drug, read-out: No. Mice Affected/No. Mice Tested, 4 h (converted)) is 100%. Moreover, for the setting “Mus musculus, 6 h post-drug, read-out: No. Mice Affected/No. Mice Tested, 6 h (converted)”, the responders at 132 µmol/kg is 0%. In addition, the responders at 132 µmol/kg (Mus musculus, 24 h post-drug, read-out: No. Mice Affected/No. Mice Tested, 24 h (converted)) is 33.3%. Moreover, under “Mus musculus, total, read-out: No. Mice Affected/No. Mice Tested, Total (converted)”, the responders at 132 µmol/kg is 100%.
For the compound `CCCN1CCc2cccc3c2C1Cc1ccc(OC(=O)c2cc(OC)c(OC)c(OC)c2)c(OC(=O)c2cc(OC)c(OC)c(OC)c2)c1-3` (stereo not drawn) [Ex. 1L, N-Propylnorapomorphine bis-3,4,5-trimethoxybenzoate hydrochloride], the ED50 (read-out: ED50) is 15 µmol/kg. Besides, the responders at 5.2 µmol/kg (Mus musculus, 0.5 h, 1/2 h post-drug, read-out: No. Mice Affected/No. Mice Tested, 1/2 h) was 0%; the responders at 5.2 µmol/kg (Mus musculus, 1 h post-drug, read-out: No. Mice Affected/No. Mice Tested, 1 h) was determined as 0%; the responders at 5.2 µmol/kg (Mus musculus, 2 h post-drug, read-out: No. Mice Affected/No. Mice Tested, 2 h) is 0%; the responders at 5.2 µmol/kg (Mus musculus, 4 h post-drug, read-out: No. Mice Affected/No. Mice Tested, 4 h) came to 0%; the responders at 5.2 µmol/kg (Mus musculus, 6 h post-drug, read-out: No. Mice Affected/No. Mice Tested, 6 h) came out at 0%; the responders at 5.2 µmol/kg (Mus musculus, 24 h post-drug, read-out: No. Mice Affected/No. Mice Tested, 24 h) came out at 0%. The responders at 5.2 µmol/kg (Mus musculus, total, read-out: No. Mice Affected/No. Mice Tested, Total) came to 0%. Also, the responders at 26 µmol/kg (Mus musculus, 0.5 h, dose 0.026 m. mole/kg, 1/2 h post-drug, read-out: No. Mice Affected/No. Mice Tested, 1/2 h (converted)) was 75%; the responders at 26 µmol/kg (Mus musculus, dose 0.026 m. mole/kg, 1 h post-drug, read-out: No. Mice Affected/No. Mice Tested, 1 h (converted)) is 75%; the responders at 26 µmol/kg (Mus musculus, dose 0.026 m. mole/kg, 2 h post-drug, read-out: No. Mice Affected/No. Mice Tested, 2 h (converted)) is 100%; the responders at 26 µmol/kg (Mus musculus, dose 0.026 m. mole/kg, 4 h post-drug, read-out: No. Mice Affected/No. Mice Tested, 4 h (converted)) was 100%; the responders at 26 µmol/kg (Mus musculus, dose 0.026 m. mole/kg, 6 h post-drug, read-out: No. Mice Affected/No. Mice Tested, 6 h (converted)) is 100%; the responders at 26 µmol/kg (Mus musculus, dose 0.026 m. mole/kg, 24 h post-drug, read-out: No. Mice Affected/No. Mice Tested, 24 h) came out at 0%. The responders at 26 µmol/kg (Mus musculus, dose 0.026 m. mole/kg, total, read-out: No. Mice Affected/No. Mice Tested, Total (converted)) is 100%.
On to `CCC(=O)Oc1ccc2c(c1OC(=O)CC)-c1cccc3c1C(C2)N(C)CC3` (stereo not drawn) [Ref. 1, reference compound], for which the responders at 26 µmol/kg amounted to 0% under setting [1]; 0% under setting [2]; 0% under setting [7]; 0% under setting [3]; 0% under setting [4]; 0% under setting [5]. Moreover, under setting [6], the responders at 26 µmol/kg was found to be 0%. The responders at 52 µmol/kg is 25% under setting [1]; 25% under setting [2]; 0% under setting [7]; 0% under setting [3]; 0% under setting [4]; 25% under setting [6]. Besides, the responders at 104 µmol/kg by setting is: under setting [1], 41.7%; under setting [2], 41.7%; under setting [7], 0%; under setting [3], 0%; under setting [4], 0%; under setting [6], 41.7%. Further, the responders at 208 µmol/kg by setting is: under setting [1], 100%; under setting [2], 100%; under setting [7], 100%; under setting [3], 50%; under setting [4], 0%; under setting [5], 0%. Under setting [6], the responders at 208 µmol/kg is 100%. Under “Mus musculus”, this compound had an ED50 of 98 µmol/kg.
